# Laboratory results taken from paper PMC9368981, “The γ-Core Motif Peptides of AMPs from Grasses Display Inhibitory Activity against Human and Plant Pathogens” (International Journal of Molecular Sciences, 2022).
# Where a SMILES comes first, the peptide text is derived from it.
# Columns and labels:
# [1] = tested on: F. verticillioides VKM F-670; type: cell-based, Fusarium verticillioides
# Description: (§1) The antimicrobial activity of synthetic peptides was tested against a panel of human and plant pathogens. Among them were the yeasts Candida albicans VKM Y-2994 and Cryptococcus neoformans VKM Y-2755, the plant pathogenic bacteria Clavibacter michiganensis subsp. michiganensis VKM Ac-1403, Pseudomonas savastanoi pv. savastanoi VKM B-1546 and Pectobacterium carotovorum subsp. carotovorum VKM B-1247, and four Fusarium species (F. oxysporum VKM F-137, F. culmorum VKM F-2303, F. solani VKM F-142 and F. verticillioides VKM F-670), which cause diseases in plants and humans. The antimicrobial activity was first measured at the peptide concentration of 300 µM (Figure 3).
# (§2) The antimicrobial activity of synthetic peptides was tested against the yeasts Candida albicans VKM Y-2994 and Cryptococcus neoformans VKM Y-2755, the bacteria Pseudomonas savastanoi pv. savastanoi VKM B-1546, Pectobacterium carotovorum subsp. carotovorum VKM B-1247 and Clavibacter michiganensis subsp. michiganensis VKM Ac-1403, and four Fusarium species: F. culmorum VKM F-2303, F. oxysporum VKM F-137, F. solani VKM F-142 and F. verticillioides VKM F-670. All cultures were obtained from the All-Russian Collection of Microorganisms (VKM). The details of the production and storage of cultures of microorganisms used in this study are described at the VKM Home page. Antimicrobial assays were accomplished according to the procedure described earlier. In short, yeasts were grown on the YPD-P medium and the bacteria P. carotovorum and Cl. michiganensis were cultured on a modified YPD-P medium. The Fusarium fungi were grown on potato dextrose agar at 25 °C for 7–8 days, and spores were washed off from the surface of the mycelia with sterile, distilled water. The antimicrobial activity of the peptides was measured in immunoassay microtiter plates according to the protocol of Broekaert et al.. With yeasts and bacteria, each well contained 10 µL of the tested peptide solution (final concentrations of 10–300 µM) in water, 80 µL of the medium and 10 µL of the microbial suspension. The plates were incubated at 30 °C for 24 h, and the absorbance of the suspension was measured on an Efos 9305 spectrophotometer (Sapphire, Moscow, Russia) at 594 nm. For Fusarium species, the wells of a microtiter plate were filled with 90 µL of the fungal spore suspension in half-strength potato dextrose broth at a concentration of 2000–3000 spores in 100 µL and 10 µL of aqueous solutions of peptides at final concentrations of 10–300 µM. After 38 h of incubation, the absorbance was recorded at 595 nm on a FilterMax F5 Multi-Mode Microplate Reader (Molecular Devices, San Jose, CA, USA). Antimicrobial activity is expressed in IC50 values, which show the concentration necessary for 50% inhibition of the pathogen growth; this was determined from a graph showing the activity dependence on peptide concentration.
# (§3) For each pathogen, experiments on the peptide antimicrobial activity evaluation were carried out in triplicate per treatment. Mean values, standard deviations (SD), and the significance of differences (p ≤ 0.05) of the means between treatments and controls (t-test for independent variables) were determined using STATISTICA v. 6.1 software (StatSoft Inc., Tulsa, OK, USA).
# [2] = tested on: Candida albicans VKM Y-2994; type: cell-based
# Description: as §1, §2, §3
# [3] = tested on: Cryptococcus neoformans VKM Y-2755; type: cell-based; conditions: for Inhibition of Cr. neoformans at the highest tested concentration: inhibition curves (Figure 4), highest tested concentration (300 µM)
# Description: as §1, §2, §3
# [4] = tested on: Pseudomonas savastanoi pv. savastanoi VKM B-1546; type: cell-based; conditions: peptide 10–300 µM, 30 °C, 24 h, absorbance 594 nm; from activity vs concentration graph; mean ± SD; read-out: IC50, μM Ps. savastanoi
# Description: as §1, §2, §3
# [5] = tested on: Pectobacterium carotovorum subsp. carotovorum VKM B-1247; conditions: 300 µM peptide; modified YPD-P medium, 30 °C, 24 h, absorbance 594 nm; vs control without peptide; triplicate, mean
# Description: All cultures were obtained from the All-Russian Collection of Microorganisms (VKM).
# Mean values, standard deviations (SD), and the significance of differences (p ≤ 0.05) of the means between treatments and controls (t-test for independent variables) were determined using […] v. 6.1 software (StatSoft Inc., Tulsa, OK, USA).
# Cr. neoformans cells [6] = assay: Propidium iodide penetration, flow cytometry; type: cell-based, Cryptococcus neoformans; conditions: 28 °C, 2 h
# Description: (§4) Their ability to disturb the integrity of pathogen membranes was assayed by staining with propidium iodide of C. albicans and Cr. neoformans cells preliminarily incubated with the peptides. The results were visualized by fluorescent microscopy and quantified by flow cytometry (Figure 5, Figure 6 and Figure 7).
# For flow cytometry experiments with Cr. neoformans, the yeasts were grown on the YPD medium at 28 °C for 48 h. After that, the cells were centrifuged at 12,000× g for 3 min, washed with MiliQ water and incubated with the peptides dissolved in water at a concentration of 300 µM at 28 °C for 2 h. The cells were stained with propidium iodide by direct addition of the dye to the incubation medium (final concentration of 2 µg/mL) and measured on a NovoCyte Flow cytometer (Agilent, Santa Clara, CA, USA) using the channel FL2 (488 nm excitation and 585 nm emission). The sample without peptides was used as a control.
# Cr. neoformans cells [7] = assay: Propidium iodide staining, fluorescence microscopy; type: cell-based, Cryptococcus neoformans; conditions: peptide 300 µM, 30 °C, 1 h, 0.03 mM PI 15 min
# Description: as §4
# (§5) Staining of yeast cells with propidium iodide in the presence of the γ-core peptides was carried out according to the protocol described earlier. C. albicans or Cr. neoformans cells (24 h culture in YPD-P at a cell concentration of 2 × 10^8/mL) were incubated with the peptide at a concentration of 300 µM at 30 °C for 1 h. After incubation, 1 mL of the cells was stained with 0.03 mM propidium iodide (Sigma, St. Louis, MO, USA). The staining proceeded for 15 min at 30 °C. The fluorescence was recorded on an AXIO Imager A1 fluorescence microscope (ZEISS, Göttingen, Germany) using a Zeiss filter set 56 HE.
# C. albicans cells = assay: Propidium iodide staining, fluorescence microscopy; type: cell-based, Candida albicans; conditions: peptide 300 µM, 30 °C, 1 h, 0.03 mM PI 15 min
# Description: as §4, §5
# [8] = tested on: Clavibacter michiganensis subsp. michiganensis VKM Ac-1403; assay: Growth inhibition of Cl. michiganensis in microtiter plates; type: cell-based; conditions: inhibition curves (Figure 4); highest tested concentration of 300 µM
# Description: as §1
# The antimicrobial activity of synthetic peptides was tested against the yeasts Candida albicans VKM Y-2994 and Cryptococcus neoformans VKM Y-2755, the bacteria Pseudomonas savastanoi pv. savastanoi VKM B-1546, Pectobacterium carotovorum subsp. carotovorum VKM B-1247 and Clavibacter michiganensis subsp. michiganensis VKM Ac-1403, and four Fusarium species: F. culmorum VKM F-2303, F. oxysporum VKM F-137, F. solani VKM F-142 and F. verticillioides VKM F-670. All cultures were obtained from the All-Russian Collection of Microorganisms (VKM). […] The antimicrobial activity of the peptides was measured in immunoassay microtiter plates according to the protocol of Broekaert et al.. […] The plates were incubated at 30 °C for 24 h, and the absorbance of the suspension was measured on an Efos 9305 spectrophotometer (Sapphire, Moscow, Russia) at 594 nm. […] After 38 h of incubation, the absorbance was recorded at 595 nm on a FilterMax F5 Multi-Mode Microplate Reader (Molecular Devices, San Jose, CA, USA). […]
# as §3, with “6.1 software (StatSoft Inc., Tulsa, OK, USA).” left out
"IC50 ([1]; peptide 10–300 µM, 38 h, absorbance 595 nm, from activity vs concentration graph, mean ± SD) [µM]","IC50 ([2]; peptide 10–300 µM, 30 °C, 24 h, absorbance 594 nm, from activity vs concentration graph, mean ± SD) [µM]","IC50 ([3]; peptide 10–300 µM, 30 °C, 24 h, absorbance 594 nm, from activity vs concentration graph, mean ± SD, read-out: IC50, μM Cr. neoformans) [µM]",IC50 [4] [µM],SMILES,"Maximum inhibition of F. verticillioides at 150 µM ([1]; inhibition curves (Figure 4), peptide 150 µM)","Inhibition of C. albicans at the highest tested concentration ([2]; inhibition curves (Figure 4), highest tested concentration (300 µM))",Inhibition of Cr. neoformans at the highest tested concentration [3] [%],"Pathogen inhibition, % (P. carotovorum) [5] [%]","Penetration of propidium iodide (PI) into Cr. neoformans cells (Cr. neoformans cells [6]; peptide 300 µM in water, PI 2 µg/mL, FL2 (488/585 nm)) [%]",Number of Cr. neoformans cells in flow cytometry (Cr. neoformans cells [6]; peptide 300 µM),Membrane permeabilization of Cr. neoformans cells (PI staining) (Cr. neoformans cells [7]),Membrane permeabilization of C. albicans cells (PI staining) (C. albicans cells),Inhibition of Cl. michiganensis at the highest tested concentration [8] [%]
> 100,> 100,> 100,> 100,C[C@H](NC(=O)[C@H](CCCNC(=N)N)NC(=O)CNC(=O)[C@@H](NC(=O)[C@H](Cc1ccc(O)cc1)NC(=O)[C@@H]1CCCN1C(=O)[C@H](CCCNC(=N)N)NC(=O)CNC(=O)[C@H](CCCNC(=N)N)NC(=O)[C@H](C)NC(=O)[C@@H]1CCCN1C(=O)[C@@H](N)CS)[C@@H](C)O)C(=O)N[C@@H](CS)C(=O)O [DEFL4-37_90-102] (H-CPARGRPYTGRAC-OH; N-terminus and C-terminus assumed),about 35%,about 35%,100,36,68.48,reduction in the number of Cr. neoformans cells,induced membrane permeabilization,induced membrane permeabilization,
,,,,C[C@H](N)C(=O)N[C@@H](CS)C(=O)N1CCC[C@H]1C(=O)NCC(=O)N[C@@H](C)C(=O)N[C@@H](CS)C(=O)N1CCC[C@H]1C(=O)N[C@@H](C)C(=O)N1CCC[C@H]1C(=O)NCC(=O)NCC(=O)N[C@@H](CO)C(=O)N[C@@H](Cc1ccc(O)cc1)C(=O)N[C@H](C(=O)N[C@@H](CC(N)=O)C(=O)N[C@@H](CCCNC(=N)N)C(=O)NCC(=O)N[C@@H](CS)C(=O)N[C@@H](CCC(N)=O)C(=O)N[C@@H](CCCCN)C(=O)N[C@@H](CCCCN)C(=O)N[C@@H](Cc1ccc(O)cc1)C(=O)N[C@@H](CCC(N)=O)C(=O)N[C@@H](CS)C(=O)N[C@@H](CCCNC(=N)N)C(=O)O)[C@@H](C)O [DEFL4-20_86-110] (H-ACPGACPAPGGSYTNRGCQKKYQCR-OH; N-terminus and C-terminus assumed),,,95,,,,induced membrane permeabilization,induced membrane permeabilization,91
